Results: patent publication US5451407A, “Reduction or prevention of skin irritation or sensitization during transdermal administration of a irritating or sensitizing drug” (ALZA Corporation, priority 1993, dated 1995)

Key:
[1] = test system: chloroquine-induced irritation; test: Effect of methyl nicotinate on chloroquine-induced irritation (Finn chamber, Minolta Chroma Meter); assay type: in vivo, adult human male; conditions: 0.05 w/v methyl nicotinate with chloroquine base 1% w/v, 16 hours application, human forearm; scored 3 hours to 7 days; FIG. 5
Description: The following formulations were made to determine the effect of methyl nicotinate on chloroquine-induced irritation:
1) chloroquine base 1% w/v, ethanol 24% w/v, HEPPS 5% w/v, hydroxyethylcellulose gel 2% w/v, NaOH q.s. pH 8.5 and distilled water q.s.,
2) chloroquine base 1% w/v, methyl nicotinate 0.05 w/v, ethanol 24% w/v, HEPPS 5% w/v, hydroxyethylcellulose gel 2% w/v, NaOH q.s. pH 8.5 and distilled water q.s.,
3) methyl nicotinate 0.05 w/v, ethanol 24% w/v, HEPPS 5% w/v, hydroxyethyl cellulose gel 2% w/v, NaOH q.s. pH 8.5 and distilled water q.s., and
4) ethanol 24% w/v, HEPPS 5% w/v, hydroxyethylcellulose gel 2% w/v, NaOH q.s. pH 8.5 and distilled water q.s.
0.020 ml of each formulation was placed in a Finn® chamber. The chambers were inverted and applied to four skin sites on the forearm of an adult human. […] At 3 hours, 8 hours, 1 day, 2 days, 3 days, 4 days, 6 days and 7 days thereafter, the sites were observed and the intensity of the irritant reaction was scored with a Minolta® Chroma Meter.
The Minolta® Chroma Meter converts all colors within the range of human perception into a numerical code using the L*, a* and b* notation system. […] Minolta® measurements were made by taking the mean a* value of three readings at the treated site. That result was then subtracted from the mean a* value of three readings at adjacent sites treated with a placebo formulation.

[2] = test system: elicitation of sensitization to propranolol; test: Effect of methyl nicotinate on the elicitation of sensitization to propranolol (Minolta Chroma Meter); assay type: in vivo, adult male known to be sensitized to propranolol; conditions: 0.05 w/v percent methyl nicotinate with 0.1 w/v percent propranolol base, two hours application, upper arm; recorded two and three days later; FIG. 6
Description: The following formulations were made to determine the effect of methyl nicotinate on the elicitation of sensitization to propranolol:
1) 0.1 w/v percent propranolol base, 32 w/v percent ethanol, 5 w/v percent HEPPS, 2 w/v percent hydroxyethylcellulose, NaOH q.s. pH 8 and distilled water q.s., and
2) 0.1 w/v percent propranolol base, 0.05 w/v percent methyl nicotinate, 32 w/v percent ethanol, 5 w/v percent HEPPS, 2 w/v percent hydroxyethylcellulose, NaOH q.s. pH 8 and distilled water q.s.
0.020 ml of each formulation was placed in a Finn® chamber. The chambers were applied to four sites on the upper arm of an adult, who was known to be sensitized to propranolol. After two hours the chambers were removed and the sites washed. The intensity of the reaction was recorded two and three days later using the mean a* measurement recorded by a Minolta® Chroma Meter.

[3] = test system: sensitization and elicitation of sensitization to tetracaine; test: Sensitization and elicitation reactions to tetracaine at 72 hours, Minolta Chroma Meter; assay type: in vivo, hairless guinea pigs; conditions: for a" value: challenge 1% tetracaine, alone or + 1% methyl nicotinate, Minolta Chroma Meter
Description: The Minolta® Chroma Meter converts all colors within the range of human perception into a numerical code using the L*, a* and b* notation system. L* expresses brightness on the black-white axis; a* expresses hue on the red-green axis; and b* expresses chroma on the yellow-blue axis so that a specific numerical code enables an exact color description of an object. Minolta® measurements were made by taking the mean a* value of three readings at the treated site.
(§1) After the ninth induction exposure, the animals received no treatment for two weeks. The following formulations were used to determine the effect of methyl nicotinate on the sensitization and elicitation of sensitization to tetracaine during the challenge phase:
(§2) 1) 1 w/v percent tetracaine HCl, 28 w/v percent ethanol, 5 w/v percent HEPPS, 2 w/v percent hydroxypropylcellulose, NaOH q.s. pH 8 and distilled water q.s.,
(§3) 2) 1 w/v percent tetracaine HCl, 1.0 w/v percent methyl nicotinate, 28 w/v percent ethanol, 5 w/v percent HEPPS, 2 w/v percent hydroxypropylcellulose, NaOH q.s. pH 8 and distilled water q.s., and
(§4) 3) 28 w/v percent ethanol, 5 w/v percent HEPPS, 2 w/v percent hydroxypropylcellulose, NaOH q.s. pH 8 and distilled water q.s.
(§5) 0.1 ml of each formulation was placed in a Finn® chamber. The chamber was then applied to the backs of the animals for 6 hours on previously untreated sites.
The test sites of the animals were then scored using a Minolta® Chroma Meter.

[4] = test system: cumulative irritation produced by tetracaine HCl; test: Cumulative irritation produced by tetracaine HCl during the induction phase, visual score; assay type: in vivo, hairless guinea pigs; conditions: 2% tetracaine, alone or + 1% methyl nicotinate, Table 1 scale (total possible score 8)
Description: The following formulations were made to determine the effect of methyl nicotinate on the cumulative irritation produced by tetracaine HCl during the induction phase:
1) 2 w/v percent tetracaine HCl, 28 w/v percent ethanol, 5 w/v percent HEPPS, 2 w/v percent hydroxypropylcellulose, NaOH q.s. pH 8 and distilled water q.s.,
2) 2 w/v percent tetracaine HCl, 1.0 w/v percent methyl nicotinate, 28 w/v percent ethanol, 5 w/v percent HEPPS, 2 w/v percent hydroxypropylcellulose, NaOH q.s. pH 8 and distilled water q.s., and
as §4
0.1 ml of each formulation was placed in a Finn® chamber, and applied to the back of a hairless guinea pigs (Charles River). After 6 hours the chambers were removed. This was repeated a total of nine times. The inductions were alternated between two sites, such that one site received five applications and the other site received four applications. Two, 24 and 48 hours after removal of the first, fourth, seventh and ninth applications, the treatment sites were scored to assess irritation.

[5] = test system: sensitization and elicitation of sensitization to tetracaine; test: Sensitization and elicitation of sensitization to tetracaine during the challenge phase, visual score; assay type: in vivo, hairless guinea pigs; design: scale not given here; conditions: challenge 1% tetracaine, alone or + methyl nicotinate (1.0 w/v percent), Table 1 scale
Description: as §1, §2, §3, §4, §5

## COC(=O)c1cccnc1 [methyl nicotinate]
[1]
  irritant reaction (mean a* value): reduced the irritant reaction
[2]
  elicitation of the sensitization reaction (mean a* value): inhibited the elicitation of the sensitization reaction
[3]; FIG. 9
  elicitation reaction to tetracaine (Minolta scores): decreased
  sensitization reaction to tetracaine (Minolta scores): decreased

## CCCCNc1ccc(C(=O)OCCN(C)C)cc1 [tetracaine]
[4]; application four, 2 h after removal
  visual irritation score: 2.7
[4]; application four, 24 h after removal
  visual irritation score: 2.6
[4]; application four, 48 h after removal
  visual irritation score: 1.8
[4]; application nine, 2 h after removal
  visual irritation score: 6.7
[4]; application nine, 24 h after removal
  visual irritation score: 6.6
[4]; application nine, 48 h after removal
  visual irritation score: 6.0
[4]; application one, 2 h after removal
  visual irritation score: 1.9
[4]; application one, 24 h after removal
  visual irritation score: 1.2
[4]; application one, 48 h after removal
  visual irritation score: 1.1
[4]; application seven, 2 h after removal
  visual irritation score: 5.8
[4]; application seven, 24 h after removal
  visual irritation score: 5.9
[4]; application seven, 48 h after removal
  visual irritation score: 5.6
[5]; induction 2% tetracaine + 1% methyl nicotinate, 2 h after removal
  visual score of challenge site: 2.8
[5]; induction 2% tetracaine + 1% methyl nicotinate, 24 h after removal
  visual score of challenge site: 2.3
[5]; induction 2% tetracaine + 1% methyl nicotinate, 48 h after removal
  visual score of challenge site: 2.1
[5]; induction 2% tetracaine + 1% methyl nicotinate, 72 h after removal
  visual score of challenge site: 2.0
[5]; induction 2% tetracaine, 2 h after removal
  visual score of challenge site: 3.4
[5]; induction 2% tetracaine, 24 h after removal
  visual score of challenge site: 2.5
[5]; induction 2% tetracaine, 48 h after removal
  visual score of challenge site: 2.2
[5]; induction 2% tetracaine, 72 h after removal
  visual score of challenge site: 2.1
[5]; induction Control, 2 h after removal
  visual score of challenge site: 1.6
[5]; induction Control, 24 h after removal
  visual score of challenge site: 1.0
[5]; induction Control, 48 h after removal
  visual score of challenge site: 0.8
[5]; induction Control, 72 h after removal
  visual score of challenge site: 0.6
[3]; induction formulation 2% tetracaine + 1% methyl nicotinate
  a" value: 10.6
[3]; induction formulation 2% tetracaine
  a" value: 12.8
[3]; induction formulation Control
  a" value: 8.8
